The IC50 is the concentration that inhibits the measured activity by half.

Assay [1] deals with ASPC1 cells. Put plainly: Inhibition of KRas-mediated phosphorylation of ERK (Cisbio HTRF pERK), ASPC1 cells. Format: cell-based. The following applies: Homo sapiens, ASPC1, 3 h, AsPC-1 cells, 3 hr compound incubation.
Assay [2] concerns A549 cells. The assay can be described thus: Inhibition of KRas-mediated phosphorylation of ERK (Cisbio HTRF pERK), A549 cells. Format: cell-based. The following applies: Homo sapiens, A549, 3 h, 3 hr compound incubation. Background: Time-resolved FRET reads energy transfer from a long-lived donor to a nearby acceptor.
Assay [3] has as its target KRas G12V (Homo sapiens, UniProt P01116, G12V). Put plainly: biochemical. The following applies: Binding to KRas (IC50 nM) G12V, TR-FRET displacement, KRas G12V.
Assay [4] concerns the target KRas G12D (Homo sapiens, UniProt P01116, G12D). The assay can be described thus: biochemical. As to conditions: Binding to KRas (IC50 nM) G12D, TR-FRET displacement, KRas G12D.
The target of assay [5] is KRas G12R (Homo sapiens, UniProt P01116, G12R). The assay can be described thus: biochemical. The following applies: Binding to KRas (IC50 nM) G12R, TR-FRET displacement, KRas G12R.
For assay [6], the system named is PSN1 cells. Put plainly: Inhibition of KRas-mediated phosphorylation of ERK (Cisbio HTRF pERK), PSN1 cells. Format: cell-based. The following applies: Homo sapiens, PSN1, 3 h. The protocol: (§1) Inhibition of KRas Phosphorylation of ERK (HTRF) by Exemplary Compounds of Formula (I) Cisbio HTRF Advanced pERK Assay Catalog #64AERPEH • Cells: MKN1, PSN1 • Procedure: • Day 1: Seed 6,000 cells/well -25 µl/well in 384-well white solid bottom plate; RPM1_10% FBS.

Assay [7] deals with MKN1 cells. The assay can be described thus: Inhibition of KRas-mediated phosphorylation of ERK (Cisbio HTRF pERK), MKN1 cells. Format: cell-based. As to conditions: Homo sapiens. The protocol: as §1
For assay [8], the system named is H727 cells. The assay can be described thus: Inhibition of KRas-mediated phosphorylation of ERK (Cisbio HTRF pERK), H727 cells. Format: cell-based. The following applies: Homo sapiens, NCI-H727, 3 h, 3 hr compound incubation.
In assay [9] the test system is H358 cells. The assay can be described thus: Inhibition of KRas-mediated phosphorylation of ERK (Cisbio HTRF pERK), H358 cells. As to conditions: Homo sapiens, NCI-H358, 3 h, 3 hr compound incubation. Format: cell-based.
The target in assay [10] is KRas G12S (Homo sapiens, UniProt P01116, G12S). Format: binding. As to conditions: TR-FRET displacement, read-out: Binding to KRas (IC50 nM) G12S.
The target of assay [11] is KRas WT (Homo sapiens, UniProt P01116). The assay can be described thus: KRas binding assay (TR-FRET displacement), KRas WT. The following applies: TR-FRET displacement.
For assay [12], the target named is KRas G12C (Homo sapiens, UniProt P01116, G12C). Format: binding. As to conditions: TR-FRET displacement, read-out: Binding to KRas (IC50 nM) G12C.
The mark [13] stands for this setting: 3 hour compound incubation, Cisbio pERK HTRF.
Where [14] appears, read: MKN-1, 3 hour compound incubation, Cisbio pERK HTRF.
The mark [15] stands for this setting: MKN-1, 3 hr compound incubation.

KRas G12V, sequence (P01116 1-169 isoform P01116-2 G12V): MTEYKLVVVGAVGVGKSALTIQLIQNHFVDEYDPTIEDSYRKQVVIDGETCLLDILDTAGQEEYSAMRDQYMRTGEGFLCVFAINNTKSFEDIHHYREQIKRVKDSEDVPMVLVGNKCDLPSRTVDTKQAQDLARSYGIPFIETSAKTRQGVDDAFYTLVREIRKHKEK
KRas G12R, sequence (P01116 1-169 isoform P01116-2 G12R): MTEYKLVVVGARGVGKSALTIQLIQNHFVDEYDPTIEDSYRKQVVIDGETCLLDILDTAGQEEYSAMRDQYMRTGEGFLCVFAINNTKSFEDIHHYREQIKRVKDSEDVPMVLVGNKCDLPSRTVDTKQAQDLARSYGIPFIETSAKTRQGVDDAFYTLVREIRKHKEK
KRas G12D, sequence (P01116 1-169 isoform P01116-2 G12D): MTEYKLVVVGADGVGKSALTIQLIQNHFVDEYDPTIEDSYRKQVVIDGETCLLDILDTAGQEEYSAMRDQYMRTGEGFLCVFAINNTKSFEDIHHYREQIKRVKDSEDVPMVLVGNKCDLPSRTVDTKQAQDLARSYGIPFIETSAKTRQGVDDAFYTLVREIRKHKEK
KRas G12S, sequence (P01116 1-169 isoform P01116-2 G12S): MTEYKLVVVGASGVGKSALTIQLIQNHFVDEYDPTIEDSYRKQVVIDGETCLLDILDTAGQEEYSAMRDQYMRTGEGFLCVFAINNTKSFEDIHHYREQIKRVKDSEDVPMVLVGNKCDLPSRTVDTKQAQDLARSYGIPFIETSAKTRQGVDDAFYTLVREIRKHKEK
KRas G12C, sequence (P01116 1-169 isoform P01116-2 G12C): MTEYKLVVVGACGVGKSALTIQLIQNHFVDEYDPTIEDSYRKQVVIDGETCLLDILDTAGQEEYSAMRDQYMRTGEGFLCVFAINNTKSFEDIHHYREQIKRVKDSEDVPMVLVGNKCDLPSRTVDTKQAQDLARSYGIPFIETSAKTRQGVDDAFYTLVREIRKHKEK
KRas WT, sequence (P01116 1-169 isoform P01116-2): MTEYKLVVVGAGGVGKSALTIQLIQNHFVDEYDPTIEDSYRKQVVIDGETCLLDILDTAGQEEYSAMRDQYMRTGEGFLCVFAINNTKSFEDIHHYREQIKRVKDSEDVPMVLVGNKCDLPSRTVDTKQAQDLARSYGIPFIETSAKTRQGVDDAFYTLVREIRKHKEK

`CCc1c(F)ccc2cc(O)cc(N3CCc4c(nc(OC[C@@]56CCCN5C[C@H](F)C6)nc4N4CCCn5nc(N(C)C)cc5C4)C3)c12` [Example 405, 4-(4-(2-(dimethylamino)-7,8-dihydro-4H-pyrazolo[1,5-a][1,4]diazepin-5(6H)-yl)-2-(((2R,7aS)-2-fluorotetrahydro-1H-pyrrolizin-7a(5H)-yl)methoxy)-5,8-dihydropyrido[3,4-d]pyrimidin-7(6H)-yl)-5-ethyl-6-fluoronaphthalen-2-ol]: the IC50 in assay [1] (Cisbio pERK HTRF) was 339 nM; in [2] (Cisbio pERK HTRF) it was 273 nM; in assay [3], 9 nM; in assay [4], 5 nM; in [5] it was 3 nM; in [6] (setting [13]) it was greater than 10000 nM. Besides, the half-maximal inhibitory concentration (IC50) worked out at 99.9 nM in assay [7] (setting [14]) and 308 nM in assay [8] (Cisbio pERK HTRF).

Regarding `CCc1c(F)ccc2cc(O)cc(N3CCc4c(nc(OC[C@@]56CCCN5C[C@H](F)C6)nc4NCC4CNS(=O)(=O)N4)C3)c12` (stereo partly drawn) [Example 410, 3-(((7-(8-ethyl-7-fluoro-3-hydroxynaphthalen-1-yl)-2-(((2R,7aS)-2-fluorohexahydro-1H-pyrrolizin-7a-yl)methoxy)-5,6,7,8-tetrahydropyrido[3,4-d]pyrimidin-4-yl)amino)methyl)-1,2,5-thiadiazolidine 1,1-dioxide], the IC50 in assay [1] (Cisbio pERK HTRF) is greater than 10000 nM; in [3], 4 nM; in [4], 18 nM; in [5] it was 7 nM; in [6] (setting [13]), greater than 10000 nM; in assay [7] (setting [14]) it was 217 nM. Further, 1670 nM corresponded to half-maximal inhibition in assay [8] (Cisbio pERK HTRF) (IC50).

For `CCc1c(F)ccc2cc(O)cc(N3CCc4c(nc(OC[C@@]56CCCN5C[C@H](F)C6)nc4NCC4CC(=O)NC4=O)C3)c12` (stereo partly drawn) [Example 414, 3-(((7-(8-ethyl-7-fluoro-3-hydroxynaphthalen-1-yl)-2-(((2R,7aS)-2-fluorotetrahydro-1H-pyrrolizin-7a(5H)-yl)methoxy)-5,6,7,8-tetrahydropyrido[3,4-d]pyrimidin-4-yl)amino)methyl)pyrrolidine-2,5-dione], the IC50 in assay [1] (Cisbio pERK HTRF) came to 3000 nM; in assay [3], 3 nM; in assay [4] it was 8 nM; in assay [5] it was 11 nM; in [6] (setting [13]), 7540 nM; in assay [7] (setting [14]) it was 28.4 nM. In assay [8] (Cisbio pERK HTRF), this compound gave a 50% inhibitory concentration (IC50) of 935 nM.

In the case of `CCc1c(F)ccc2cc(O)cc(N3CCc4c(nc(OC[C@@]56CCCN5C[C@H](F)C6)nc4N4C[C@H]5C[C@@H](C4)C(=O)NC5=O)C3)c12` [Example 416, (1R,5S)-7-(7-(8-ethyl-7-fluoro-3-hydroxynaphthalen-1-yl)-2-(((2R,7aS)-2-fluorohexahydro-1H-pyrrolizin-7a-yl)methoxy)-5,6,7,8-tetrahydropyrido[3,4-d]pyrimidin-4-yl)-3,7-diazabicyclo[3.3.1]nonane-2,4-dione], the IC50 is 486 nM in assay [1] (Cisbio pERK HTRF); 100 nM in assay [2] (Cisbio pERK HTRF); less than 2 nM in [3]; 4 nM in assay [4]; less than 2 nM in [5]; 4710 nM in [6] (setting [13]). For the same compound, the IC50 in assay [7] (setting [14]) stood at 19.9 nM; in assay [8] (Cisbio pERK HTRF), 346 nM.

With `CCc1c(F)ccc2cc(O)cc(N3CCc4c(nc(OCC5(CN(C)C)CC5)nc4N4C[C@@H]5C[C@H](C4)[C@H](O)C5)C3)c12` [Example 431, (1R,5R,6R)-3-(2-((1-((dimethylamino)methyl)cyclopropyl)methoxy)-7-(8-ethyl-7-fluoro-3-hydroxynaphthalen-1-yl)-5,6,7,8-tetrahydropyrido[3,4-d]pyrimidin-4-yl)-3-azabicyclo[3.2.1]octan-6-ol], the IC50 in [1] (Cisbio pERK HTRF) was 1410 nM; in assay [3], 2 nM; in assay [4] it was 6 nM; in [5], less than 2 nM; in [6] (setting [13]), greater than 10000 nM; in assay [7] (setting [14]) it was 158 nM. The same compound registered a half-inhibitory concentration (IC50) in assay [8] (Cisbio pERK HTRF) of 1100 nM.

`CCc1c(F)ccc2cc(O)cc(N3CCc4c(nc(OC[C@@]56CCCN5C[C@H](F)C6)nc4N4CCCn5nc(C(=O)N6CC7CN(C8COC8)CC7C6)cc5C4)C3)c12` (stereo partly shown) [Example 503]: the half-inhibitory concentration (IC50) is 11 nM in assay [1] (Cisbio pERK HTRF); less than 2 nM in assay [3]; less than 2 nM in [4]; less than 2 nM in [5]; 3230 nM in assay [6] (setting [13]); 10.7 nM in [7] (setting [14]). In assay [8] (Cisbio pERK HTRF), inhibition was half-maximal at 19 nM (IC50).

As to `O=S1(=O)CCC2(CCCN(c3nc(OC[C@@]45CCCN4C[C@H](F)C5)nc4c3CCN(c3cc(O)cc5cccc(Cl)c35)C4)C2)N1` (stereo partly drawn) [Example 513, 7-(7-(8-chloro-3-hydroxynaphthalen-1-yl)-2-(((2R,7aS)-2-fluorohexahydro-1H-pyrrolizin-7a-yl)methoxy)-5,6,7,8-tetrahydropyrido[3,4-d]pyrimidin-4-yl)-2-thia-1,7-diazaspiro[4.5]decane 2,2-dioxide], the IC50 in [1] (Cisbio pERK HTRF) is 27 nM; in assay [3] it was less than 2 nM; in assay [4], 3 nM; in assay [5], less than 2 nM; in [6] (setting [13]), 949 nM; in [7] (setting [14]) it was 6 nM. In addition, the IC50 in assay [8] (Cisbio pERK HTRF) is 92 nM.

Turning to `CCc1c(F)ccc2cc(O)cc(N3CCc4c(nc(OC[C@@]56CCCN5C[C@H](F)C6)nc4N4CCCCn5nc(N)cc5C4)C3)c12` [Example 590, 4-(4-(2-amino-6,7,8,9-tetrahydropyrazolo[1,5-a][1,4]diazocin-5(4H)-yl)-2-(((2R,7aS)-2-fluorotetrahydro-1H-pyrrolizin-7a(5H)-yl)methoxy)-5,8-dihydropyrido[3,4-d]pyrimidin-7(6H)-yl)-5-ethyl-6-fluoronaphthalen-2-ol], the IC50 in assay [1] (Cisbio pERK HTRF) is 391 nM; in assay [3], 2 nM; in assay [4], 4 nM; in assay [5], less than 2 nM; in [6] (setting [13]), 9600 nM; in [7] (setting [14]), 40.8 nM. The same compound gave an IC50 in assay [8] (Cisbio pERK HTRF) of 277 nM.

`CCc1c(F)ccc2cc(O)cc(N3CCc4c(nc(OC[C@@]56CCCN5C[C@H](F)C6)nc4N4CCCn5ncc(CO)c5C4)C3)c12` [Example 633, 5-ethyl-6-fluoro-4-(2-(((2R,7aS)-2-fluorotetrahydro-1H-pyrrolizin-7a(5H)-yl)methoxy)-4-(3-(hydroxymethyl)-7,8-dihydro-4H-pyrazolo[1,5-a][1,4]diazepin-5(6H)-yl)-5,8-dihydropyrido[3,4-d]pyrimidin-7(6H)-yl)naphthalen-2-ol]: the concentration for half-maximal inhibition (IC50) in [1] is 48 nM; in [3], less than 2 nM; in [4], less than 2 nM; in assay [5], less than 2 nM; in [6] (3 hr compound incubation) it was greater than 10000 nM; in assay [7] (setting [15]) it was 70.3 nM. In addition, the midpoint of inhibition in assay [8], the IC50, lay at 100 nM.

As for `CCc1c(F)ccc2cc(O)cc(N3CCc4c(nc(OC[C@@]56CCCN5C[C@H](F)C6)nc4N4CCCn5nc(C(=O)N(C6CC6)C6CC6)cc5C4)C3)c12` [Example 637, N,N-dicyclopropyl-5-(7-(8-ethyl-7-fluoro-3-hydroxynaphthalen-1-yl)-2-(((2R,7aS)-2-fluorotetrahydro-1H-pyrrolizin-7a(5H)-yl)methoxy)-5,6,7,8-tetrahydropyrido[3,4-d]pyrimidin-4-yl)-5,6,7,8-tetrahydro-4H-pyrazolo[1,5-a][1,4]diazepine-2-carboxamide], the IC50 in [1] was 11 nM; in assay [3], less than 2 nM; in assay [4], less than 2 nM; in [5], less than 2 nM; in [6] (3 hr compound incubation) it was 6000 nM; in assay [7] (setting [15]), 1.4 nM. Further, in assay [8], the midpoint of inhibition, the IC50, lay at 9 nM.

Take `C=C1CN2CCCC2(COc2nc3c(c(N4CC5CC(O)CC4C5)n2)CCN(c2cc(O)cc4ccc(F)c(CC)c24)C3)C1` (stereo not shown) [Example 661, 6-(7-(8-ethyl-7-fluoro-3-hydroxynaphthalen-1-yl)-2-((2-methylenetetrahydro-1H-pyrrolizin-7a(5H)-yl)methoxy)-5,6,7,8-tetrahydropyrido[3,4-d]pyrimidin-4-yl)-6-azabicyclo[3.2.1]octan-3-ol]: the IC50 in [1] is greater than 10000 nM; in [2], 3800 nM; in assay [9], 864 nM; in assay [3], 33 nM; in assay [4], 143 nM; in [7] (setting [15]), 1380 nM. Moreover, the 50% inhibitory concentration (IC50) in assay [10] turned out to be 21 nM; in assay [8], 4780 nM; in assay [11], 25 nM; in [12], 32 nM.
